Measurements published in ChEMBL document CHEMBL6134864, “Discovery of FLT3-ITD Inhibitor Clifutinib: A Novel Biphenylacetylene Urea Derivative in Clinical Trials for the Treatment of Relapsed/Refractory FLT3-ITD+ Acute Myeloid Leukemia” (J Med Chem, 2025).
The source made the active and inactive calls. The calls are words filed in the database; no cut-off is given here.

Assays:
[1] = Antitumor activity against human […] cells harbouring FLT3-ITD xenografted in NOD/SCID mouse model assessed as tumor regression rate at 1.5 to 4.5 mg/kg/day, po administered for 21 days and measured for 31 days post dose by caliper analysis relative to control; format: functional, MV4-11; conditions: dose lower […], dose upper 4.5 mg/kg/day, time 52 day
[2] = tested on: SW-620; assay: cells; conditions: Homo sapiens, SW-620, 72 h
Description: Antiproliferative activity against human SW620 cells assessed as inhibition of cell growth incubated for 72 hrs by celltiter-glo luminescent cell viability assay

[3] = Oral bioavailability in mouse plasma at 10 mg/kg measured up to 24 hrs by LC-MS/MS analysis; format: ADME, organism-based
[4] = Tmax in dog plasma at 5 mg/kg, po measured up to 24 hrs by LC-MS/MS analysis; format: ADME, organism-based, Canis lupus familiaris
[5] = AUC (0 to t) in NOD/SCID mouse plasma xenografted with human MV4-11 cells at 4.5 mg/kg, po measured up to 24 hrs by LC-MS/MS analysis; format: ADME, organism-based
[6] = Tmax in mouse plasma at 10 mg/kg, po measured up to 24 hrs by LC-MS/MS analysis; format: ADME, organism-based
[7] = tested on: RS4-11; assay: cells; conditions: Homo sapiens, RS4-11, 72 h
Description: Antiproliferative activity against human RS4;11 cells assessed as inhibition of cell growth incubated for 72 hrs by celltiter-glo luminescent cell viability assay

[8] = tested on: MOLM-13; assay: Antitumor activity against human MOLM-13 cells xenografted in NOD/SCID mouse model assessed as tumor growth inhibition at 0.5 mg/kg/day, po by caliper analysis relative to control; format: functional; conditions: read-out: TGI
[9] = target: Proto-oncogene tyrosine-protein kinase receptor Ret (Homo sapiens, UniProt P07949); assay: Inhibition of human RET by biochemical kinase binding assay
[10] = Half life in monkey plasma at 1 mg/kg, iv measured up to 24 hrs by LC-MS/MS analysis; format: ADME, organism-based, Macaca mulatta; conditions: rhesus monkey
[11] = tested on: NCI-H460; assay: cells; conditions: Homo sapiens, NCI-H460, 72 h
Description: Antiproliferative activity against human NCI-H460 cells assessed as inhibition of cell growth incubated for 72 hrs by celltiter-glo luminescent cell viability assay

[12] = tested on: BaF3; assay: Antiproliferative activity against mouse BaF3 cells harbouring FLT3-ITD assessed as inhibition of cell growth incubated for 72 hrs by celltiter-glo luminescent cell viability assay; format: functional, cell-based; conditions: BaF3, 72 h
[13] = tested on: BaF3; assay: cells; conditions: Mus musculus, BaF3, 72 h
Description: Antiproliferative activity against mouse BaF3 cells harbouring FLT3-D83HY mutant assessed as inhibition of cell growth incubated for 72 hrs by celltiter-glo luminescent cell viability assay

[14] = tested on: U-251; assay: cells; conditions: Homo sapiens, U-251, 72 h
Description: Antiproliferative activity against human U-251 cells assessed as inhibition of cell growth incubated for 72 hrs by celltiter-glo luminescent cell viability assay

[15] = Half life in mouse plasma at 10 mg/kg, po measured up to 24 hrs by LC-MS/MS analysis; format: ADME, organism-based
[16] = Toxicity in NOD/SCID mouse assessed as effect on body weight at 20 mg/kg/day, po measured for 7 days; format: organism-based; conditions: in vivo, 168 h, time 7 day
[17] = target: Mast/stem cell growth factor receptor Kit (Homo sapiens, UniProt P10721, Y823D); assay: Inhibition of human KIT Y823D mutant by biochemical kinase binding assay
[18] = Toxicity in NOD/SCID mouse assessed as observable signs of toxicity at 0.5 to 4.5 mg/kg/day, po administered for 21 days and measured for 31 days post dose; format: organism-based; conditions: in vivo, 504 h, dose 0.5-4.5 mg/kg/day, time 21 day
[19] = tested on: RPMI-8226; assay: cells; conditions: Homo sapiens, RPMI-8226, 72 h
Description: Antiproliferative activity against human RPMI-8226 cells assessed as inhibition of cell growth incubated for 72 hrs by celltiter-glo luminescent cell viability assay

[20] = tested on: BaF3; assay: cells; conditions: Mus musculus, BaF3, 72 h; remark: listed apart in the source
[21] = tested on: Receptor-type tyrosine-protein kinase FLT3 (Homo sapiens), P36888 [UNDEFINED MUTATION]; assay: Inhibition of FLT3 in human MV4-11 cells harbouring FLT3-ITD mutant assessed as inhibition of AKT phosphorylation level measured after 2 hrs by Western blot analysis; format: cell-based; conditions: dose 1-1000 nM
[22] = tested on: Receptor-type tyrosine-protein kinase FLT3 (Homo sapiens), P36888 [UNDEFINED MUTATION]; assay: Inhibition of FLT3 in human MV4-11 cells harbouring FLT3-ITD mutant assessed as effect on AKT protein level at 1 to 1000 nM measured after 2 hrs by Western blot analysis; format: cell-based; conditions: dose 1-1000 nM
[23] = Tmax in NOD/SCID mouse tumor xenografted with human MV4-11 cells at […], po measured up to 24 hrs by LC-MS/MS analysis; format: ADME, organism-based, Neoplasm; conditions: dose 1.5 mg/kg
[24] = Cmax in NOD/SCID mouse plasma xenografted with human MV4-11 cells at […], po measured up to 24 hrs by LC-MS/MS analysis; format: ADME, organism-based; conditions: dose 1.5 mg/kg
[25] = tested on: A2780; assay: cells; conditions: Homo sapiens, A2780, 72 h
Description: Antiproliferative activity against human A2780 cells assessed as inhibition of cell growth incubated for 72 hrs by celltiter-glo luminescent cell viability assay

[26] = tested on: BaF3; assay: Antiproliferative activity against mouse BaF3 cells harbouring FLT3-ITD-D835Y mutant assessed as inhibition of cell growth incubated for 72 hrs by celltiter-glo luminescent cell viability assay; format: functional, cell-based; conditions: BaF3, 72 h
[27] = target: Cytochrome P450 2B6 (Homo sapiens, UniProt P20813); assay: Inhibition of CYP2B6 in human liver microsomes by UPLC-MS/MS analysis; format: ADME, Microsome
[28] = Half life in NOD/SCID mouse plasma xenografted with human MV4-11 cells at […], po measured up to 24 hrs by LC-MS/MS analysis; format: ADME, organism-based; conditions: dose 1.5 mg/kg
[29] = Tmax in monkey plasma at 1 mg/kg, iv measured up to 24 hrs by LC-MS/MS analysis; format: ADME, organism-based, Macaca mulatta; conditions: rhesus monkey
[30] = tested on: BaF3; assay: Antiproliferative activity against mouse BaF3 cells harbouring FLT3-D835Y mutant assessed as inhibition of cell growth incubated for 72 hrs by celltiter-glo luminescent cell viability assay; format: functional, cell-based; conditions: BaF3, 72 h
[31] = tested on: MCF7; assay: cells; conditions: Homo sapiens, MCF7, 72 h
Description: Antiproliferative activity against human MCF7 cells assessed as inhibition of cell growth incubated for 72 hrs by celltiter-glo luminescent cell viability assay

[32] = tested on: Receptor-type tyrosine-protein kinase FLT3 (Homo sapiens), P36888 [UNDEFINED MUTATION]; assay: Inhibition of FLT3 in human MV4-11 cells harbouring FLT3-ITD mutant assessed as inhibition of FLT3 phosphorylation level measured after 2 hrs by Western blot analysis; format: cell-based; conditions: dose 1-1000 nM
[33] = target: Cytochrome P450 3A4 (Homo sapiens, UniProt P08684); assay: Inhibition of CYP3A4 in human liver microsomes by UPLC-MS/MS analysis; format: ADME, Microsome
[34] = Tmax in mouse plasma at 2 mg/kg, iv measured up to 24 hrs by LC-MS/MS analysis; format: ADME, organism-based
[35] = tested on: Receptor-type tyrosine-protein kinase FLT3 (Homo sapiens), P36888 [UNDEFINED MUTATION]; assay: Inhibition of FLT3 in human MV4-11 cells harbouring FLT3-ITD mutant assessed as inhibition of ERK phosphorylation level measured after 2 hrs by Western blot analysis; format: cell-based; conditions: dose 1-1000 nM
[36] = Antitumor activity against human […] cells harbouring FLT3-ITD xenografted in NOD/SCID mouse model assessed as tumor regression rate at 20 mg/kg/day, po measured for 8 days by caliper analysis relative to control; format: functional, MV4-11; conditions: time 8 day
[37] = Half life in dog plasma at 1 mg/kg, iv measured up to 24 hrs by LC-MS/MS analysis; format: ADME, organism-based, Canis lupus familiaris
[38] = tested on: Receptor-type tyrosine-protein kinase FLT3 (Homo sapiens), P36888 [UNDEFINED MUTATION]; assay: Inhibition of FLT3 in human MV4-11 cells harbouring FLT3-ITD mutant assessed as effect on ERK protein level at 1 to 1000 nM measured after 2 hrs by Western blot analysis; format: cell-based; conditions: dose 1-1000 nM
[39] = target: Mast/stem cell growth factor receptor Kit (Homo sapiens, UniProt P10721, T670I/V559D); assay: Inhibition of human KIT V559D/T670I mutant by biochemical kinase binding assay
[40] = Half life in mouse plasma at 2 mg/kg, iv measured up to 24 hrs by LC-MS/MS analysis; format: ADME, organism-based

Receptor-type tyrosine-protein kinase FLT3 (Homo sapiens), P36888 [UNDEFINED MUTATION], sequence (P36888 whole entry, looked up, stated change not applied): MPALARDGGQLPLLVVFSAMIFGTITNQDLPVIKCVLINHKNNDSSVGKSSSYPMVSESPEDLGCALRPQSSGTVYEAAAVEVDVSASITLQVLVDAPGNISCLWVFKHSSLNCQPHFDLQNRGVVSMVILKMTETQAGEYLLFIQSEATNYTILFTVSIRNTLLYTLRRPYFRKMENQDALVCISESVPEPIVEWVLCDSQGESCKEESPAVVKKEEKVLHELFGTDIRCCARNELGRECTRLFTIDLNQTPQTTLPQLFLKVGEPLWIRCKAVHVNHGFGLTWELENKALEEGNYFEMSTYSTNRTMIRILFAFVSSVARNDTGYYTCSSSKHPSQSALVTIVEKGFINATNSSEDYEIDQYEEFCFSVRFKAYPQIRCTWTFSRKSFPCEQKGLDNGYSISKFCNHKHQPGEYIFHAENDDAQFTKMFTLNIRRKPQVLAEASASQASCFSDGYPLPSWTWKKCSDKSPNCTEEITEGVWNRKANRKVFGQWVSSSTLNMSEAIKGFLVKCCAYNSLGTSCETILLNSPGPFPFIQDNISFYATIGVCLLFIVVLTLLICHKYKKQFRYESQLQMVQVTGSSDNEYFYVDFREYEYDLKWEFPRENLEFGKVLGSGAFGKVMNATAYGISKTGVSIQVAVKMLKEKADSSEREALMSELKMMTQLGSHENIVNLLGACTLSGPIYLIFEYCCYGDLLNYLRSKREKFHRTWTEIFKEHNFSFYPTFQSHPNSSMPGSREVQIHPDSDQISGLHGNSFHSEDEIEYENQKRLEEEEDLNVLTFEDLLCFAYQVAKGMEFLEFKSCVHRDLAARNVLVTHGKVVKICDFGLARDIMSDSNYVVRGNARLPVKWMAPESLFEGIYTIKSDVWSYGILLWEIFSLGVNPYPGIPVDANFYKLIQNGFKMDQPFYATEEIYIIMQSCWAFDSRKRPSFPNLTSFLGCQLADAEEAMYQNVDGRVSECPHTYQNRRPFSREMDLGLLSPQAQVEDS
Mast/stem cell growth factor receptor Kit (Homo sapiens, UniProt P10721, Y823D), sequence (P10721 26-976 Y823D limits assumed): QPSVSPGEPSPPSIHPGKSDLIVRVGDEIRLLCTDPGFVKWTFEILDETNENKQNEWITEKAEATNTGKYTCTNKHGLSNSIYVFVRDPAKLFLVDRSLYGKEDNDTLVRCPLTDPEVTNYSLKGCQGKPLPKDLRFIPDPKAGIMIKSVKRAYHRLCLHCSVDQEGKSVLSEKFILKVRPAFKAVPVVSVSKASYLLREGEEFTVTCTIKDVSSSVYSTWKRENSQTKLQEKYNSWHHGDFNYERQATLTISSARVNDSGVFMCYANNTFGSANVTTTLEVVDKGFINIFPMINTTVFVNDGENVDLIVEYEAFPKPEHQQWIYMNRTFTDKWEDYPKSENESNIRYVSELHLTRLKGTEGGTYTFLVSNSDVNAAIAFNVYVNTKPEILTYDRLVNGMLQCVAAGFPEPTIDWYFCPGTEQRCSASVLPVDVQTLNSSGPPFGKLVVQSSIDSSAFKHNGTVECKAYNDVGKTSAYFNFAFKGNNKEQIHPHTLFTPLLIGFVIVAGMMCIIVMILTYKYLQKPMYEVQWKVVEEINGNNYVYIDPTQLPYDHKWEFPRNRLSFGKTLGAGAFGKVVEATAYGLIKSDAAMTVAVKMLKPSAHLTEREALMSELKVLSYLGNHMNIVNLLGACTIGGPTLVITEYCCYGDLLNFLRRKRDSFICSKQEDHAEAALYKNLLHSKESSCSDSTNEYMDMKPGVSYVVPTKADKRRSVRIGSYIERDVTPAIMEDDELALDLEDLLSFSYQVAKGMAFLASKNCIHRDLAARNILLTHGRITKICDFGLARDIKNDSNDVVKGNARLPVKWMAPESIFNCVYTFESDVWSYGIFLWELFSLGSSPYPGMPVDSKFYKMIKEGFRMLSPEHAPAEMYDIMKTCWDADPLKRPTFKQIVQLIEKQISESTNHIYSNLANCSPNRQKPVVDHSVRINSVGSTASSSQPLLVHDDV
Cytochrome P450 3A4, sequence (P08684 whole entry): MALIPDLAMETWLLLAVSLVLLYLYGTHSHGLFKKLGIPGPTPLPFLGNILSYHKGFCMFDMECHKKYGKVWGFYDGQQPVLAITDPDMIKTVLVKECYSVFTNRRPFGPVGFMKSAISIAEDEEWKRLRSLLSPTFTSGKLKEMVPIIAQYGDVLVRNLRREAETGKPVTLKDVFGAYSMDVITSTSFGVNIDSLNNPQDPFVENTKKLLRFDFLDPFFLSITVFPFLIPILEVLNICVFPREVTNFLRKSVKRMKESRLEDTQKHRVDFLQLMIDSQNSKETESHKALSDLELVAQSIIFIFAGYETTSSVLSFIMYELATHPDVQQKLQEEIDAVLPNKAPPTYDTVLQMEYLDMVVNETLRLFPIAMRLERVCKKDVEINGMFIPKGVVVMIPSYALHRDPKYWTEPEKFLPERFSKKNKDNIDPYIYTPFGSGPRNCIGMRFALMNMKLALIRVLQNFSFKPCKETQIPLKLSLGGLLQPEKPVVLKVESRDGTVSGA
Mast/stem cell growth factor receptor Kit (Homo sapiens, UniProt P10721, T670I/V559D), sequence (P10721 26-976 V559D/T670I limits assumed): as the sequence (P10721 26-976 Y823D limits assumed) above, with V534D, T645I, D798Y counted along it
Proto-oncogene tyrosine-protein kinase receptor Ret, sequence (P07949 whole entry): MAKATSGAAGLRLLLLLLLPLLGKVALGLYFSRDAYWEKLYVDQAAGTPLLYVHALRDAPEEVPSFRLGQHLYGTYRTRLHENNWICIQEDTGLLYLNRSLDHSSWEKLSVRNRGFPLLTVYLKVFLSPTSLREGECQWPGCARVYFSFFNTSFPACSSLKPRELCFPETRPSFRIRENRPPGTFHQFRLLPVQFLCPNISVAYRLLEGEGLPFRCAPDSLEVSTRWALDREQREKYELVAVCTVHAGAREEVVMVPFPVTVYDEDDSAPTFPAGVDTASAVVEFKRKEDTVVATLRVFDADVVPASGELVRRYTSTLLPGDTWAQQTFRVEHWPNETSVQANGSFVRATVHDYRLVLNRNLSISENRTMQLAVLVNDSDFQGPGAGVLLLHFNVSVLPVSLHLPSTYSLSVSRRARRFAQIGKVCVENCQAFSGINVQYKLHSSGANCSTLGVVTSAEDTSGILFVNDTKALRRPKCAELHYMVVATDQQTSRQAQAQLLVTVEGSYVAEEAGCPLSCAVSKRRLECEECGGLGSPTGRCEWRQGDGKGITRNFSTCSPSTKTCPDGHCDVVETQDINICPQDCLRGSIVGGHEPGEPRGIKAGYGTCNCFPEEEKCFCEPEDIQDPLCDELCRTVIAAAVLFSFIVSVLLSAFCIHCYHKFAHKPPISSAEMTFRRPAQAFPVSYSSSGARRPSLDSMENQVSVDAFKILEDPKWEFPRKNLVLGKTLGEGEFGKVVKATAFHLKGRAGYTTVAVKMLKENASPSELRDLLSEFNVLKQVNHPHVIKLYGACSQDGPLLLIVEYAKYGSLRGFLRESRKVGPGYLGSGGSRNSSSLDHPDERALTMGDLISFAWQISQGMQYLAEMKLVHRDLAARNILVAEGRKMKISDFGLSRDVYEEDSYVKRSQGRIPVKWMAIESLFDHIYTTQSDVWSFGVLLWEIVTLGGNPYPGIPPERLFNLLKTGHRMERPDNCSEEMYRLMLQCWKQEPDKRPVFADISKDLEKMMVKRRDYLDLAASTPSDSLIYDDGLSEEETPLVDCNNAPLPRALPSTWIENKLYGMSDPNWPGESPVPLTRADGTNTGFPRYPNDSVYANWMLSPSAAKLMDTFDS
Cytochrome P450 2B6, sequence (P20813 whole entry): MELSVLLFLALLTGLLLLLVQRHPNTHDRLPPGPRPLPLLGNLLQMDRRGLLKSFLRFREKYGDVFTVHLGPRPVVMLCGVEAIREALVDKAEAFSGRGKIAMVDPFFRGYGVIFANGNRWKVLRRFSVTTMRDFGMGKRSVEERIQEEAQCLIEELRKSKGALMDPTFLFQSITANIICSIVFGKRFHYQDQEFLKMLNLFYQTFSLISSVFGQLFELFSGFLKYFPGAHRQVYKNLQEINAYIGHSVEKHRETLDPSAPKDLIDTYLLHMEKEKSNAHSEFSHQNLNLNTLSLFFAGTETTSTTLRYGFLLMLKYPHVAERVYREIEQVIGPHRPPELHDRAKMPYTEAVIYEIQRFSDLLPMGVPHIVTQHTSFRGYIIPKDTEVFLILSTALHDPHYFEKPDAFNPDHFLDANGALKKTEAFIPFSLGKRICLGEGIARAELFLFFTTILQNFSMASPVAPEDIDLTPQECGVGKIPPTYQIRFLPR

CC(C)(C)c1cc(NC(=O)Nc2ccc(C#Cc3ccc(OCCCN4CCOCC4)cc3)cc2)no1
Activity [1]: 100% | IC50 [2]: > 10000 nM | bioavailability [3]: 50.3% | Tmax [4]: 1.67 h | AUC(0-t) at 24 h [5]: 908 ng·h/mL | Tmax [6]: 0.5 h | IC50 [7]: > 10000 nM | inhibition in vivo at 0.5 mg/kg/day [8]: 39% | IC50 [9]: 110 nM | half-life [10]: 13.1 h | IC50 [11]: 7800 nM | IC50 [12]: 0.9 nM | IC50 [13]: 10.9 nM | IC50 [14]: > 10000 nM | half-life [15]: 1.73 h | Activity [16]: Non-toxic | IC50 [17]: 283 nM | Activity [18]: Non-toxic | IC50 [19]: > 10000 nM | IC50 [20]: 2.9 nM | inhibition [21]: Dose-dependent-effect | inhibition [22]: inactive | Tmax at 24 h [23]: 6 h | Cmax at 24 h [24]: 52.8 ng/mL | IC50 [25]: 7200 nM | IC50 [26]: 47.6 nM | IC50 [27]: > 33300 nM | half-life at 24 h [28]: 3.34 h | Tmax [29]: 4.98 min | IC50 [30]: 5.4 nM | IC50 [31]: > 10000 nM | inhibition [32]: Dose-dependent-effect | IC50 [33]: > 33300 nM | Tmax [34]: 4.98 min | inhibition [35]: Dose-dependent-effect | Activity [36]: 85.4% | half-life [37]: 6.28 h | inhibition [38]: inactive | IC50 [39]: 283 nM | half-life [40]: 1.17 h
